# Test results as given in patent US6890954B1, “Uses of 2-bromopalmitate in the treatment of autoimmune disease” (priority 1999, dated 2005).
# How the values were obtained:
# Type in all cases: cell-based
# Fyn [1] = molecular target: T1, Fyn (Homo sapiens, UniProt P06241); assay: Fyn fatty acylation (IC13/IC16 incorporation) in transfected COS-1 cells; conditions: for effect of palmitate analog on Fyn fatty acylation: COS-1 cells, data not shown
# T1 construct: expressed in transfected cells; host or cells: COS-1
# T1 sequence (P06241 whole entry, species assumed): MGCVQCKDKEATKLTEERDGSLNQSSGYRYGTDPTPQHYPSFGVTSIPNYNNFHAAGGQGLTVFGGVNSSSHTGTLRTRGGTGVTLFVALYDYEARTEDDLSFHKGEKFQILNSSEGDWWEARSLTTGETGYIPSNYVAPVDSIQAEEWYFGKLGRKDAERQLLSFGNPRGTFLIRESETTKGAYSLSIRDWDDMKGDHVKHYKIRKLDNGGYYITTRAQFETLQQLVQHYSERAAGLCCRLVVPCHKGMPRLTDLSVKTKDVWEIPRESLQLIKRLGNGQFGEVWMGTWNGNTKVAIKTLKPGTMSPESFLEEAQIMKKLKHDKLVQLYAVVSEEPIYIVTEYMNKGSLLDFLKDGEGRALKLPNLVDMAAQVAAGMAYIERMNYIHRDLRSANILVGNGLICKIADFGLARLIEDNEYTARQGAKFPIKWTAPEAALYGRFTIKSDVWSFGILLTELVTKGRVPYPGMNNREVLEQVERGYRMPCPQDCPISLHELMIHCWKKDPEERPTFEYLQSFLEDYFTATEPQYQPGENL
# Method: The syntheses of 13-[^125I]-iodotridecanoic acid (IC13)or 16-[^125I]-iodohexanoic acid (IC16) were carried out as described previously (39). Cell labeling was carried out as described (12,13) with modifications. Briefly, each 60 mm plate of Fyn transfected COS-1 cells was incubated O/N in DMEM containing 2.5% FBS, 0.5% defatted BSA (Sigma) with or without 100 μM 2-bromopalmitate or 50 μM polyunsaturated fatty acid. Prior to labeling, the cells were incubated for 1 hr with 1 ml of DMEM containing 2% dialyzed FBS, then labeled for 4 hours with 25-50 μCi IC13 or IC16 in DMEM containing 2% dialyzed FBS, 0.5% defatted BSA with or without 2-bromopalmitate or polyunsaturated fatty acid. Labeled cells were washed three times with cold STE (100 mM NaCl, 10 mM Tris pH 7.4, 1 mM EDTA) and lysed in 0.6 ml of cold RIPA buffer containing protease inhibitors (10 μg/ml each of benzamidine, AEBSF, TPCK and TLCK, 1.5 μg/ml each of Leupeptin, Pepstatin A and Aprotinin). Lysates were clarified at 100,000×g for 15 min at 4° C. in a Beckman TL-100 ultracentrifuge. Lysates were immunoprecipitated with rabbit anti-Fyn antibody and protein A-agarose. Immunoprecipitates were washed three times with cold RIPA buffer and suspended in 1× sample buffer containing 100 mM dithiothreitol and subjected to SDS-PAGE. Gels were dried between cellophane and analyzed by phosphorimaging after 12-36 hours exposure. Experiments in Jurkat T cells were carried out according to the above protocol using 2×10^7 cells per experiment, and reducing the incubation time with 2-bromopalmitate to 3-4 hours.
# A number of palmitic acid analogs were screened for their ability to inhibit Fyn palmitoylation. COS-1 cells were transfected with cDNA encoding Fyn. Three days after transfection, the cells were labeled with either [^35S]-methionine, 13-[^125I]-iodotridecanoic acid (IC13), an iodinated myristate analog, or 16-[^125I]-iodohexanoic acid (IC16), an iodinated palmitic acid analog (39), in the presence or absence of nonradioactive palmitate analogs. Cells were lysed, immunoprecipitated with anti-Fyn antibody, and analyzed by SDS-PAGE and phosphorimaging. […] When normalized for total protein levels, 70% of Fyn myristoylation and over 90% of Fyn palmitoylation was inhibited in the presence of 2-bromopalmitate. Treatment of cells with other analogs, including 2-hydroxypalmitate, palmitoleic acid and 16-hydroxypalmitate had no effect (data not shown).
# To test this hypothesis, Fyn transfected COS-1 cells were incubated O/N with or without 50 μM arachidonic acid (20:4) or eicosapentaenoic acid (20:5), then labeled with IC13 or IC16. Total protein levels were monitored by immunoblotting aliquots of each sample with anti-Fyn antibody (FIG. 8A, lower panel).
# Fyn(16)-eGFP = assay: Localization of Fyn(16)-eGFP in COS-1 cells (fluorescence microscopy, P100/S100 fractionation)
# Method: COS-1 cells were transfected with a Fyn(16)-eGFP construct (12) and seeded onto 25-mm glass coverslips 2 days prior to the experiment. Cells were treated overnight with or without 2 bromopalmitate as described above. Plates were washed with PBS and coverslips were mounted onto glass slides in PBS and observed with a 40× and 100×oil immersion lens on a Zeiss Axiophot 2 microscope and photographed with Kodak TMAX 400.
# To investigate the effect of 2-bromopalmitate on the intracellular localization of Fyn more precisely, COS-1 cells expressing a Fyn(16)-eGFP construct were examined by immunofluorescence. This construct contains the first 16 amino acids of Fyn fused in frame to eGFP; the chimera is targeted to the plasma membrane and detergent resistant microdomains (12). Cells were cultured with no treatment, with 2-bromopalmitate or with 2-hydroxymyristate, a known myristoylation inhibitor (40,41), as described above, and were examined live by fluorescence microscopy.
# Analysis of the subcellular localization of Fyn(16)-eGFP in the presence of 2-bromopalmitate and 2-hydroxymyristate was performed as described above for steady-state Fyn. As depicted in FIG. 2B, in the absence of treatment, 80% of Fyn(16)-eGFP Fyn was membrane bound, whereas in cells treated with 2-bromopalmitate and 2-hydroxymyristate, 65% and 78% of Fyn(16)-eGFP were cytosolic, respectively.
# Fyn [2] = assay: DRM localization of Fyn in PUFA-treated COS-1 cells (sucrose gradient); conditions: COS-1, 50 μM PUFA; untreated 30%
# Method: For isolation of detergent resistant microdomains in PUFA-treated COS-1 cells, a confluent 100 mm plate of COS-1 cells transiently transfected with Fyn cDNA was washed with S-IE and subjected to the same procedure described above. Fractions were analyzed for the presence of Fyn by immunoblotting.
# Whether 20:4 and 20:5 inhibited localization of Fyn to detergent resistant microdomains in COS-1 cells was examined next. Cells were treated with or without polyunsaturated fatty acids as described above and layered on the bottom of a sucrose gradient as described above. Fractions were collected and analyzed by immunoblotting with anti-Fyn antibody.
SMILES,effect of palmitate analog on Fyn fatty acylation (Fyn [1]),"inhibition of incorporation of IC16 into Fyn (palmitoylation) (Fyn [1]; COS-1, 50 μM PUFA overnight) [%]",Fyn found in detergent resistant microdomains (Fyn [2]) [%],further results
O=C(O)CCCCCCCCCCCCCCCO [16-hydroxypalmitate],no effect,–,–,–
"CCCCCCCCCCCCC(O)C(=O)O (stereo not shown) [2-hydroxymyristate, reference compound]",–,–,–,"Fyn(16)-eGFP cytosolic (Fyn(16)-eGFP; COS-1, 100 μM overnight, P100/S100, untreated 80% membrane bound): 78%; Fyn(16)-eGFP distribution by fluorescence microscopy (Fyn(16)-eGFP; COS-1 live cells, 100 μM overnight): reduced plasma membrane staining"
CCCCCC/C=C\CCCCCCCC(=O)O [palmitoleic acid],no effect,–,–,–
CC/C=C\C/C=C\C/C=C\C/C=C\C/C=C\CCCC(=O)O [eicosapentaenoic acid],–,65,5.3,–
CCCCCCCCCCCCCCC(O)C(=O)O (stereo not shown) [2-hydroxypalmitate],no effect,–,–,–
CCCCC/C=C\C/C=C\C/C=C\C/C=C\CCCC(=O)O [arachidonic acid],–,55,16,"effect on Fyn myristoylation (IC13 incorporation) (Fyn [1]; COS-1, 50 μM PUFA overnight): almost no effect"
